Test results as given in patent US20240317761A1, “PHARMACEUTICALLY ACCEPTABLE SALT OF MOR RECEPTOR AGONIST, AND POLYMORPH THEREOF AND USE THEREOF” (SHANGHAI HAIYAN PHARMACEUTICAL TECHNOLOGY CO., LTD., priority 2021, published 2024).

Experiments:
[1] = target: T1, OPRM1 (MOR) in PathHunter CHO-K1 OPRM1 β-Arrestin Cell Line (Homo sapiens, UniProt P35372); assay: β-Arrestin cell assay; assay type: cell-based
T1 construct: host or cells: CHO-K1 (PathHunter engineered line, lot 13K0402)
Protocol: The cell line used in the following tests was PathHunter® CHO-K1 OPRM1 β-Arrestin Cell Line; origin: DiscoverX, No: 93-0213 C2; lot: 13K0402. […]
The instruments used, their models and suppliers are as follows: • Countsatr BioMed, IM1200, ALIT; • Microscope, IX51, OLYMPUS; • Centrifuge, 5804, Eppendorf; • Thermostatic Water Bath, DK-S420, ShanghaiShenxian thermostatic equipment factory; • Cell Incubator, 3111, Thermo; • Biological Safety Cabinet, BSC-1300IIA2, AIRTECH; • OptiPlate-384White Opaque, 6007290, Perkin Elmer; • Multimode plate Reader, Victor X5, PerkinElmer; • Culture Plate-384 White Opaque, TC-treated, 6007680, PerkinElmer. […]
1. 20 μl of the cell suspension was pipetted using a pipette and the number of the cells was measured using a cell counter. […]
3. At the end of incubation, the plates were read using a multi-function plate reader.
The data were exported from the corresponding software in the computer connected with the multi-function plate reader, and the data were analyzed by using GraphPad Prism software. […]

[2] = target: T1, OPRM1 (MOR) in PathHunter CHO-K1 OPRM1 β-Arrestin Cell Line; assay: HTRF-cAMP cell assay; assay type: cell-based
Protocol: The cell line used in the following tests was PathHunter® CHO-K1 OPRM1 β-Arrestin Cell Line; origin: DiscoverX, No: 93-0213 C2; lot: 13K0402.
The reagents used, their suppliers, article numbers, and storage temperatures are as follows: • Assay Complete™ Cell Culture Kit 107, DiscoverX, 92-3107G, −20° C.; • AssayComplete™ Thawing Reagent, DiscoverX, 92-4002TR, −20° C.; • AssayComplete™ Cell Detachment Reagent, DiscoverX, 92-0009, −20° C.; • Assay Complete™ Cell Plating Reagent, DiscoverX, 93-0563R2, −20° C.; • PathhunterDetection Kit, DiscoverX, 93-0001, −20° C.; • PBS(1×)0.0067M(PO4), Hyclone, SH30256.01, 4° C.; • DMSO, Sigma, D5879-100 ML, ambient temperature; • NKH477, Sigma, 1603, −20° C.; and • IBMX, Tocris, 15879, −20° C.
The instruments used, their models and suppliers are as follows: • Countsatr BioMed, IM1200, ALIT; • Microscope, IX51, OLYMPUS; • Centrifuge, 5804, Eppendorf; • Thermostatic Water Bath, DK-S420, ShanghaiShenxian thermostatic equipment factory; • Cell Incubator, 3111, Thermo; • Biological Safety Cabinet, BSC-1300IIA2, AIRTECH; • OptiPlate-384White Opaque, 6007290, Perkin Elmer; • Multimode plate Reader, Victor X5, PerkinElmer; • Culture Plate-384 White Opaque, TC-treated, 6007680, PerkinElmer.
1. Cell passaging steps a to h were repeated until the cells passed to the P8 generation. Cells were counted and resuspended in 2×/1 mM IBMX stimulation buffer to a cell density of 1.2*10^6/ml.
2. 1.2*10^6/ml of cell solution was seeded in a 384-well plate in a volume of 10 μl per well (i.e. 12000 cells per well) by using a multichannel pipettor.
1. Relevant reagents were prepared and the compounds were prepared according to the drug dilution preparation table.
a. […]
g. The plate was read by HTRF.
After 60 minutes of incubation, for all samples, reading plates were detected by homogeneous time-resolved fluorescence method.
The data were exported from the corresponding software in the computer connected with the multi-function plate reader, including two signal values of 665 nm and 620 nm. The ratio is calculated as ratio=665 nm signal value/620 nm signal value×10000. […]

[3] = maximum effect relative to morphine = 100%

T1 sequence (P35372 whole entry): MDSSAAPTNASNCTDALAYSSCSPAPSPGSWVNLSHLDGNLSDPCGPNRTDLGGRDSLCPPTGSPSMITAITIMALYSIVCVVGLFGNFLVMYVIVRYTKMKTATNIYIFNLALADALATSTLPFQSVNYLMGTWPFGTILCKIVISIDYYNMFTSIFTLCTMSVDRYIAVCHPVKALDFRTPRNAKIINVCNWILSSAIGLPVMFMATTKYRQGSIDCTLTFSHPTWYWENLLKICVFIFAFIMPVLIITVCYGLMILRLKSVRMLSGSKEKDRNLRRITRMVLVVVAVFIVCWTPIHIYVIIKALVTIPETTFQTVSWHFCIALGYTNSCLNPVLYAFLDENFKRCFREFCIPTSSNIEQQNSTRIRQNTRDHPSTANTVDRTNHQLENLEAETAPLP

SMILES | Emax [1, 3] | EC50 [2] | Emax [2, 3] | bias (cAMP versus β-arrestin) ([1]; compared with comparative compound D1, from Tables 5 and 6)
CC(C)C1CCC(NCC[C@@]2(c3ccccn3)CCOC3(CCCC3)C2)c2ccnn21 (some centres unmarked) [Comparative compound D1] | 28.3% | 19 nM | 52.6% | 
CC(C)[C@@H]1C[C@H](NCC[C@@]2(c3ccccn3)CCOC3(CCCC3)C2)c2ccnn21 [Compound of formula X, (4S,6S)-6-isopropyl-N-(2-((R)-9-(pyridin-2-yl)-6-oxaspiro[4.5]decane-9-yl)ethyl)-5,6-dihydro-4H-pyrrolo[1,2-b]pyrazol-4-amine] |  | 6 nM |  | better bias
